The record followed here is paper PMC10254233, “Synthesis and In Vitro Biological Evaluation of p-Carborane-Based Di-tert-butylphenol Analogs” (Molecules, 2023).

Data set [1] concerns MDA-MB-231 triple-negative breast adenocarcinoma. Kind of data set: Cell viability, MTT assay, MDA-MB-231. Type of data set: cell-based, human. The following applies: 72 h, mean ± SD. The protocol:
Five human cell lines (A375 melanoma, A549 lung adenocarcinoma, HCT116 and HT29 colorectal carcinoma, MDA-MB-231 triple-negative breast adenocarcinoma) were used to study the antitumor effects of the di-tert-butylphenols and their respective carborane analogs. All selected cell lines were derived from inflammation-associated tumors.
After the incubation period, the supernatant was discarded from the wells, and the cells were washed two times with 200 µL of PBS. Next, MTT solution at a final concentration of 0.5 mg/mL was added and incubated at 37 °C until purple formazan crystals were formed (30 min to one hour). After incubation, the dye was discarded. In order to dissolve the formed formazan crystals DMSO was added, and the absorbance was measured at λmax = 540 nm, with the reference/background wavelength of 670 nm. All results are expressed as a percentage of the control value which was arbitrary set to 100%. After 72 h treatment, cells were washed with 200 µL of PBS and fixed with 4% paraformaldehyde (PFA) for 15 min at room temperature (RT). Next, cells were stained with 1% CV solution. After 20 min, cells were washed in tap water and dried on air. Dye was dissolved in 33% acetic acid and the absorbance was measured at λmax = 540 nm, with the reference/background wavelength of 670 nm. Results were expressed as a percentage of the control value which was arbitrary set to 100%.
1. General methods, materials, and procedures
1.1.1. Reagents and cells
Reagents and cells were obtained from following manufacturers: Capricorn Scientific GmbH (Hessen, Germany) – Culture medium RPMI-1640, Dulbecco's Modified Eagle Medium (DMEM), and fetal bovine serum (FBS). Serva (Heidelberg, Germany) – Paraformaldehyde (PFA). Sigma (St. Louis, MO, USA) – Ethylenediaminetetraacetic acid (EDTA), Dimethyl sulfoxide (DMSO), chloroquine, CV, Triton X-100, RNase, PI, PBS, 3-MA, CFSE, and fluorescent mounting medium. AppliChem (MO, USA) –MTT. Thermo Fisher Scientific (Waltham, MA, USA) – DHR. R&D Systems (Minneapolis, MN, USA) – ApoStat. BD (Pharmingen, San Diego, SAD) – Annexin V-FITC (AnnV). Biological Industries (Cromwell, CT, USA) – Penicillin Streptomycin solution. American Type Culture Collection (ATCC, Manassas, Virginia, USA) – Human lung carcinoma (A549), human breast adenocarcinoma (MDA-MB-231), human colorectal ade-nocarcinoma (HT-29), human colorectal carcinoma (HCT116) and human melanoma (A375).
Cell lines (A375, HCT116, HT-29 and MDA-MB-231) were cultivated in HEPES-buffered RPMI-1640 medium while A549 cell line was cultivated in Dulbecco's Modified Eagle Medium (DMEM) which were previously supplemented with 10% heat-inactivated FBS, penicillin (100 units/mL), and streptomycin (100 μg/mL). All cells were kept at 37 °C in a humidified atmosphere with 5% CO2. For viability determi-nation cells were seeded at following densities in 96-well plates: 4 x 10^3 cells/well (A375, HT-29 and MDA-MB-231), 5 x 10^3 cells/well (HCT116), and 3 x 10^3 cells/well (A549). […]
Afterwards, cells were washed with phosphate-buffered saline (PBS) and stained with AnnV (15 μg/mL) and PI (15 μg/mL). After 15 min incubation at room temperature (RT) protected from light the cells were resuspended in AnnV-binding buffer and analysed using flow cytom-etry. HCT116 cells were incubated with pan-caspase inhibitor Apostat for 30 min at 37 °C to determine whether detected apoptosis was mediated by caspase activation. Afterwards, cells were washed with PBS and analyzed using flow cytometry. HCT116 cells were stained with 1 µg/mL of AO solution for 15 min at 37 °C to detect the presence of autophagic cell death. Afterwards cells were washed with PBS, resuspended and analyzed by flow cytometry (CyFlow® Space Partec using the PartecFloMax® software

Data set [2] can be described thus: NMR spectroscopic stability study in aqueous DMSO-d6. Type of data set: physicochemical. The following applies: room temperature, in air, four weeks, 1H and 11B{1H} NMR. The source says:
Solubility and chemical stability in organic solvents, such as aqueous dimethyl sulfoxide (DMSO), are crucial for biological investigations. Therefore, the stability of the p-carborane-containing compounds R-830-Cb, S-2474-Cb, KME-4-Cb, and E-5110-Cb in aqueous DMSO-d6 at room temperature in air was studied by ^1H- and ^11B{^1H}-NMR spectroscopy over four weeks and confirmed that all compounds are stable (see Supplementary Materials, Figure S24).

For the next data set, the target named is T1, 5-LO (Homo sapiens, UniProt P09917).
T1 sequence (P09917 1-674): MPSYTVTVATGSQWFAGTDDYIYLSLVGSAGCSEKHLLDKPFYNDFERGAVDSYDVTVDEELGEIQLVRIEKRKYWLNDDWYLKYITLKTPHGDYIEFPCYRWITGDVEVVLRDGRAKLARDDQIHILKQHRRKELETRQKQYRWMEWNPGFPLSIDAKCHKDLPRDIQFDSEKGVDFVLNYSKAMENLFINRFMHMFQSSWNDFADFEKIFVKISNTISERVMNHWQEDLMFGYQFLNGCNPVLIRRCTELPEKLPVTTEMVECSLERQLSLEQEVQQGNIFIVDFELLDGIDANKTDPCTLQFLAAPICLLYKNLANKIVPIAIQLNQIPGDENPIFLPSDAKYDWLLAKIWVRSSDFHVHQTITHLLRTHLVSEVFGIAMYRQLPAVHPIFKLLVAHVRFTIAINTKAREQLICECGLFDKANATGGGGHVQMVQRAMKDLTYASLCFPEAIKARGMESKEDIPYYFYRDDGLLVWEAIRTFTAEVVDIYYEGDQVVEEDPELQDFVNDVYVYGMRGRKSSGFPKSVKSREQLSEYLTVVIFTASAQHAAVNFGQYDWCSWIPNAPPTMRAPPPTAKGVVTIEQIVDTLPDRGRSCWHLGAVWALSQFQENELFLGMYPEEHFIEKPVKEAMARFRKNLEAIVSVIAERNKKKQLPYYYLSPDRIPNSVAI
Kind of data set: 5-LO product formation in intact PMNL. The following applies: read-out: IC50 inhibition of 5-LO product formation in intact PMNL; intact PMNL, A23187 + arachidonic acid, mean of at least three experiments.

Protocol for 5-LO: After 10 min at 37 °C, the reaction was stopped by addition of ice-cold methanol (1 mL). HCl (30 μL, 1 M), prostaglandin B1 (200 ng) and PBS (500 μL) were added and the formed metabolites were extracted and analyzed by HPLC as described previously [96].

A word on the IC50: it is the concentration needed to halve the response being measured. In the case of “(3E)-1-Hydroxy-12-(methylene-[dihydrofurane-2′(3H)-one])-1,12-dicarba-closo-dodecaborane(12) [KME-4-Cb]”, the IC50 was determined as 120000 ± 3900 nM in data set [1] and 70 nM at 5-LO. For the same substance, the “stability in aqueous DMSO-d6” value in data set [2] was “stable”.

Take “(3E)-1-Hydroxy-12-(methylene-[1′-methoxypyrrolidine-2′-one])-1,12-dicarba-closo-dodecaborane(12) [Compound E-5110-Cb]”: the “stability in aqueous DMSO-d6” value in data set [2] is given as “stable”. For the same substance, the IC50 on 5-LO is 220 nM.

For the substance “1-Hydroxy-12-(thiophen-2′-carbonyl)-1,12-dicarba-closo-dodecaborane(12) [Compound R-830-Cb]”, the IC50 in data set [1] came out at 46500 ± 100 nM; on 5-LO it was 650 nM. For the same substance, the “stability in aqueous DMSO-d6” value in data set [2] is “stable”.

For “(3E)-1-Hydroxy-12-(methylene-[2′-ethylisothiazolidine-1′,1′-dioxide])-1,12-dicarba-closo-dodecaborane(12) [Compound S-2474-Cb]”, the IC50 in data set [1] is above 200000 nM; at 5-LO it was below 30 nM. Further, the “stability in aqueous DMSO-d6” value in data set [2] was “stable”.
